From US5322854A, “Reveromycin A, method for preparing the same, and antitumor agent and antifungal agent comprising the same” (Rikagaku Kenkyusho, priority 1990, dated 1994)

Columns and labels:
[1] = background art; cited from earlier work
[2] = test system: TGF-α; settings: background art; cited from earlier work
[3] = Solubility
[4] = test system: src^ts -NRK cells; assay: Cell toxicity in src^ts-NRK cells; type: cell-based, Rat; settings: 50 μg/ml, 32° C.
[5] = test system: mouse epithelial cells; assay: Cell toxicity in mouse epithelial cells; type: cell-based; settings: 50 μg/ml
[6] = Acute toxicity; settings: mouse, in vivo, iv

For `O=CN/C=C/c1cc(O)ccc1O` [Erbstatin], the effect in blood [1] is listed as “lose their effects in blood” and the potency [2] is listed as “not sufficiently potent”.

With `CCCC[C@@]1(OC(=O)CCC(=O)O)CC[C@]2(CC[C@H](C)[C@@H](C/C=C(C)/C=C/[C@H](O)[C@@H](C)/C=C/C(=O)O)O2)O[C@H]1/C=C/C(C)=C/C(=O)O` [Reveromycin A] the Solubility ([3]; aqueous acidic solution) was “insoluble”, the Solubility ([3]; dimethylsulfoxide, ethyl acetate, and methanol) was “easily soluble” and the cell toxicity [4] was “observed”. For the same molecule, the cell toxicity [5] was “observed” and the LD50 [6] was no less than 100 mg/kg.
